# Results as given in ChEMBL document CHEMBL1151019, “Kinetics of thermal [1,7a]-sigmatropic shift of hexafluoro vitamin D3 and vitamin D3 derivatives. Evaluation of conformations of the A ring affected by 1-OH and 3-OH groups” (Bioorg Med Chem Lett, 1996).
# Assay: Kinetic constant for the transformation of vitamin D to Previtamin D (kl / k-1)
row,Structure (SMILES),Keq
1,C=C1CC[C@H](O)C/C1=C/C=C1\CCC[C@]2(C)[C@@H]([C@H](C)CCCC(C)C)CC[C@@H]12,3.71
2,C=C1CCCC/C1=C/C=C1\CCC[C@]2(C)C([C@H](C)CCCC(C)C)CC[C@@H]12 (stereo not given in full),3.06
3,C=C1/C(=C\C=C2/CCC[C@]3(C)C([C@H](C)CCCC(O)(C(F)(F)F)C(F)(F)F)CC[C@@H]23)C[C@@H](O)C[C@@H]1O (stereo not given in full),5.1
4,C=C1/C(=C\C=C2/CCC[C@]3(C)C([C@H](C)C[C@H](O)CC(O)(C(F)(F)F)C(F)(F)F)CC[C@@H]23)C[C@@H](O)C[C@@H]1O (stereo not given in full),5.46
5,C=C1/C(=C\C=C2/CCC[C@]3(C)[C@@H]([C@H](C)CCCC(C)C)CC[C@@H]23)C[C@@H](O)C[C@@H]1O,5.18
